The test system of one data set is TPA-induced ear edema. The experiment in a line: TPA-induced ear edema model. The class given is in vivo, mouse. The note with it: 0.01% single topical, TPA 0.01%, ear thickness 6 hours after TPA. The method, then: Experiment: Three representative compounds, 5-(2-phenylethenyl)-2-1-propyl-1,3-benzenediol, as previously reported, a closely related stilbene derivative (WO 0142231) and compound 39B, a novel compound of the current invention, were assayed against the edema on female mice (Balb/c) aged 10-12 weeks, using 0.01% Calcitriol (a commercial standard) as a positive control. Phorbol-12-myristate-13-acetate (TPA) was used as the edema inducer. TPA and the test compounds were all dissolved in 100% ethanol and 20 μl applied on the right ear of the mouse with six mice per group. The TPA concentration used was 0.01% (w/v). Ear thickness was measured 6 hours after TPA treatment to determine if edema was decreased. In each experiment replicated groups of TPA treated mice were treated with either 5-(2-phenylethenyl)-2-1-propyl-1,3-benzenediol, Calcitriol, compound 39B or only ethanol, and the level of inhibition was obtained by measuring the thickness of the ear and expressing the difference in thickness of the treated ear from that of the ethanol treated ear, as a percentage.

A further data set relates to human PBMC. The experiment in a line: Proliferation of PHA-stimulated human PBMC (MTT). The data set is classed as cell-based. The note with it: for IC50: MTT after 48 hours. The method, then:
(§1) (a). Effect on proliferation and IFN-γ production of human peripheral blood mononuclear cells (PBMC) stimulated by phytochemagglutinin (PHA).
(§2) Experiment: PBMC were cultured with PHA and cultured with titrated concentrations of compounds or solvent, or media alone using standard cell culture techniques. The MTT assay was performed after 48 hours of culture. Supernatants were collected after 48 hours of culture and levels of IFN-γ were assayed by ELISA.

Another data set has as its system IFN-γ. The experiment in a line: IFN-γ production by PHA-stimulated human PBMC (ELISA). The note with it: for IC50: PHA-stimulated human PBMC, supernatant after 48 hours, ELISA. The data set is classed as cell-based. Here is the method:
as §1, §2
A general note: ELISA stands for enzyme-linked immunosorbent assay.

In a further data set the test system is Human keratinocytes. The experiment in a line: Human keratinocyte proliferation (MTT). The note with it: for IC50: Homo sapiens, Keratinocyte, in the presence of IFN-γ, MTT after 48 hours. The data set is classed as cell-based. The method, then:
Human keratinocytes were cultured in the presence of IFN-γ and titrated concentrations of drug or the vehicle. The MTT assay was performed after 48 hours of culture.

For another data set, the system named is TNF-α. The experiment in a line: Endotoxemia mouse model, serum TNF-α after LPS. The data set is classed as in vivo. The note with it: for TNF-α: serum 150 min after LPS 40 mg/kg IP, compounds 25 mg/kg then 3 x 12.5 mg/kg IP (dexamethasone 0.4 then 3 x 0.2 mg/kg). From the text:
The in vivo endotoxemia model used in these studies represents a mouse showing the early inflammatory response. Such severe infection can be caused by Gram negative bacteria may lead to the development of septic shock. This toxicity is caused by the lipopolysaccharide (LPS) component of the bacterial cell wall, and injection of LPS into mice can mimic the physiological response typical of the septic shock syndrome. LPS-mediated toxicity is due to the release of cytokines such as TNF-α, IL-1 and IFN-γ by activated macrophages, and the degree of toxicity can be measured by the level of these cytokines in the blood.
Experiment: Test compounds were dissolved and formulated in 50% PEG-400 in water. Female Balb/c mice (˜20 g) were first injected separately intraperitoneally (IP) with 25 mg/kg of each test compound, then challenged by injection with 40 mg/kg lipopolysaccharide (LPS) (IP) 30 minutes later. One drug injection with 12.5 mg/kg of test compound was done at the same time as (LPS challenge and two subsequent sequential injections at 30 minutes intervals. Positive control of dexamethasone was administered in a similar manner starting at 0.4 mg/kg and subsequently 0.2 mg/kg for three additional injections. Mice were sacrificed and blood collected by cardiac puncture 150 minutes after LPS challenge. The serum TNF-α levels were determined by ELISA. Each test group was comprised of six mice. Group of mice injected with the vehicle alone was used as negative control.

Data set [1] has as its system acute colon inflammation induced by 5% DSS. The experiment in a line: DSS (5%) acute colon inflammation mouse model, therapeutic experiment. The data set is classed as in vivo. From the text: To assess the in vivo efficacy for preventive and therapeutic activities of these compounds on IBD, two experiments were designed and tested using the dextran sulfate sodium (DSS) experimental mouse model for human IBD.
For the therapeutic experiment a further experiment was done to test different doses of 9A on severe, acute intestinal inflammation in mice induced by a high dose of DSS (5%). In this experiment, drug treatment started from day 3 post DSS induction when disease symptom was established. 9A (200 mg/kg or 100 mg/kg) was administered through oral […] once daily and a commercial drug, sulfasalazine (SASP, 100 mg/kg/day) was used as positive control. Experiment was terminated at day 7 and the efficacy was assessed.

Setting [2] is: Homo sapiens, PBMC, PHA-stimulated, read-out: IC50 against human PBMC proliferation.
Where [3] appears, read: Homo sapiens, PBMC, PHA-stimulated, read-out: IC50 against human PBMC proliferation (unit inferred).

Consider 13 compounds from patent publication US7868047B2, “Anti-inflammatory and psoriasis treatment and protein kinase inhibition by hydroxy stilbenes and novel stilbene derivatives and analogues” (Welichem Biotech Inc., priority 1999, dated 2011).

What is called melting point is the temperature of the solid-liquid transition.

Each structure is given as a SMILES string. Several values for one entry are separate records, joined by “and”; a condition that tells them apart may be missing. Identical values can stand only once. Like-named read-outs stand apart in the source and are kept apart here.

Take `C=C1/C(=C\C=C2/CCC[C@]3(C)[C@@H]([C@H](C)CCCC(C)(C)O)CC[C@@H]23)C[C@@H](O)C[C@@H]1O` [Calcitriol, reference compound]: the “% edema inhibition” value with TPA-induced ear edema was 31% and 31.2%.
On to `COc1cc(/C=C/c2ccccc2)cc(OC)c1C(C)C` [Compound 8A, 3,5-Dimethoxy-4-isopropyl-trans-stilbene], for which the melting point is 64 to 66 °C.
Consider `CCCc1c(O)cc(C=Cc2ccc(O)cc2)cc1O` [Compound 13B, 5-[2-(4-Hydroxyphenyl)ethenyl]-2-1-propyl-1,3-benzenediol], for which the “potency in inhibiting PBMC proliferation relative to resveratrol” value in the data set on human PBMC is reported as 20 times. For the same compound, the IC50 in the data set with human PBMC (setting [2]) is 2.97 µM; in the data set with human PBMC (setting [3]), 2.97 µM; in the data set with IFN-γ, 2.55 µM; in the data set on Human keratinocytes, 4.3 µM. The “potency in inhibiting IFN-γ production relative to resveratrol” value in the data set on IFN-γ is on record as “more than 15 times”. Further, the “potency on keratinocyte proliferation relative to resveratrol” value with Human keratinocytes was “more than 10 times”.
For `COc1cc(/C=C/c2ccccc2)cc(OC)c1Br` [Compound 14A, 3,5-Dimethoxy-4-bromo-trans-stilbene], the melting point was in the range of 149 to 152 °C.
On the same count and under the same terms, the result for `CCc1c(OC)cc(/C=C/c2ccccc2)cc1OC` [Compound 15A-a, 3,5-Dimethoxy-4-ethyl-trans-stilbene] reads 70 to 73 °C; that for `CCCCCCCCCCCCCCc1c(OC)cc(/C=C/c2ccccc2)cc1OC` [Compound 15A-b, 3,5-Dimethoxy-4-myristyl-trans-stilbene], 68 to 70 °C; that for `CCc1c(O)cc(/C=C/c2ccccc2)cc1O` [Compound 16A-a, 3,5-Dihydroxy-4-ethyl-trans-stilbene], 143 to 146 °C.
Still for that read-out and setting: the result for `CCCCCCCCCCCCCCc1c(O)cc(/C=C/c2ccccc2)cc1O` [Compound 16A-b, 3,5-Dihydroxy-4-myristyl-trans-stilbene] reads 125 to 128 °C.
Take `CCCc1c(O)cc(C=Cc2ccccc2F)cc1O` [Compound 37B, 5-[2-(2-Fluorophenyl)ethenyl]-2-1-propyl-1,3-benzenediol]: the IC50 in the data set on human PBMC (setting [2]) amounted to 5.62 µM; with IFN-γ, 3.8 µM. In addition, the “TNF-α levels in mice blood induced by LPS” value in the data set on TNF-α (P<0.05) is reported as “decreased significantly”. The compound further came in with a TNF-α in the data set with TNF-α of 638.9 ± 273.0 pg/mL.
Take `CC(C)c1c(O)cc(C=Cc2cccc(F)c2)cc1O` [Compound 38B, 5-[2-(3-Fluorophenyl)ethenyl]-2-1-propylphenyl-1,3-diol]: the IC50 stood at 9.91 µM in the data set with human PBMC (PHA-stimulated, read-out: IC50 against human PBMC proliferation) and 4.29 µM in the data set on IFN-γ.
Turning to `C[C@@H]1C[C@H]2[C@@H]3CCC4=CC(=O)C=C[C@]4(C)[C@@]3(F)[C@@H](O)C[C@]2(C)[C@@]1(O)C(=O)CO` [Dexamethasone, dexamethasone, reference compound], the TNF-α in the data set with TNF-α is listed as 281.3 ± 67.2 pg/mL.
As to `Oc1ccc(C=Cc2cc(O)cc(O)c2)cc1` [Resveratrol, resveratrol, reference compound], the IC50 with human PBMC (setting [2]) is above 50 µM; with human PBMC (setting [3]) it was above 50 µM; with IFN-γ, 39.2 µM; in the data set with Human keratinocytes, above 50 µM. Besides, in the data set with human PBMC (PHA-stimulated, 50 the highest concentration tested), the IC50 against human PBMC proliferation is above 50 µM.
Regarding `O=C(O)c1cc(/N=N/c2ccc(S(=O)(=O)Nc3ccccn3)cc2)ccc1O` [SASP, sulfasalazine, reference compound], in data set [1] (100 mg/kg oral daily, day seven, mean ± SEM, n = 9, 1 = normal, 2 = bloody stool, 4 = gross bleeding), the Bleeding score stood at 3.6 ± 0.24. The same compound gave a Diarrheal score in data set [1] (100 mg/kg oral daily, day seven, mean ± SEM, n = 9, 1 = normal, 2 = loose stools, 4 = diarrhea) of 2.8 ± 0.49. Besides, in data set [1] (5% DSS, treatment from day 3), the “survival rate vs control treatment” value was “significantly higher survival rate”.
